Reference: patent publication US20260035340A1, “INHIBITORS OF AKR1C3 AND METHODS OF USE” (BOARD OF REGENTS OF THE UNIVERSITY OF NEBRASKA, priority 2022, published 2026)

Assays:
[1] = In vitro stability in simulated intestinal fluid (SIF); assay type: in vitro ADME; settings: SIF for 2 h
Method: (§1) In vitro stability studies: Gastrointestinal (GI) fluid stability studies were performed in simulated gastric fluid (SGF) and simulated intestinal fluid (SIF). All the required media were prepared according to the USP guidelines. Mouse plasma stability were performed for neat-spiked and plasma spiked samples (pre-extraction) at 37° C. for 4 h. In addition to the analyte stability in matrix, at 48 h stability of the extracted samples was performed at 4° C. in the autosampler.

[2] = In vitro metabolic stability in human liver microsomes; assay type: in vitro ADME; settings: 1 μg/mL
Method: (§2) In vitro metabolic stability in liver microsomes: Metabolic stability was assessed using mouse and human liver microsomes, (XenoTech, LLC, Lenexa, KS). Incubation of A1-r and 4r with the microsome fractions was performed in triplicate utilizing a concentration of 1 μg/mL as previously described. Serial samples (40 μL) were collected at selected time intervals and quenched with 300 μL of acetonitrile and then spiked with 10 μL of IS (0.5 μg/mL). All the samples were vortexed and centrifuged at 13,000×g for 15 min, and the supernatant was collected and transferred to an autosampler vial and injected (2 μL) onto the LC-MS/MS system. Testosterone, 7-HC and diclofenac were used as positive controls to ensure that the microsomes and incubation conditions were appropriate to conduct metabolism studies.

[3] = In vitro stability in simulated gastric fluid (SGF); assay type: in vitro ADME; settings: SGF for 1 h
Method: as §1

[4] = In vitro stability in mouse plasma; assay type: in vitro ADME
From the text: (§3) Liquid chromatography and mass spectrometry (LCMS/MS): The ultra-performance liquid chromatography mass spectrometry system (UPLC-MS/MS) consisted of a Shimadzu 8060NX mass spectrometer and Nexera Series UPLC (Shimadzu Scientific Instruments, Columbia, MD). Analyte separation was achieved utilizing an Acquity UPLC® BEH column (C18, 2.1×100 mm, 1.7 μm) equipped with an Acquity UPLC C18 guard column (Waters, Inc. Milford MA). The mobile phase consisted of water containing 0.1% formic acid (mobile phase A) and methanol (mobile phase B) at a flow rate of 0.25 mL/min operated at room temperature. The total run time was set to last 7.5 min with a gradient elution as follows: 35% B, increasing to 95% B over 3.5 minutes, then held constant for 3.0 minutes, and finally brought back to the initial condition of 35% B in 0.20 minutes followed by 1-minute re-equilibration. The injection volume (2 μL) was consistent for all samples. The auto-sampler chamber was maintained at 4° C. throughout the analysis.
Plasma sample preparation: Plasma samples were prepared by spiking 5 μL of the appropriate calibration (CC) and quality (QCs) control working stock into a 45 μL blank mouse plasma. The concentration of the CC ranged from 0.2-1000 ng/mL with the final concentrations of 0.2, 0.5, 1, 5, 10, 50, 100, 500, and 1000 ng/mL. A simple protein precipitation technique using Phree 96 well phospholipid elimination plate (Phenomenex Inc, Torrance CA.) was utilized to isolate analyte from the plasma matrix. The CC, QCs and study plasma samples were added to Phree 96 well plate and spiked with 10 μL of IS a working solution. The precipitation of the matrix proteins was carried out using 300 μL of ice-cold acetonitrile. The plate was again vortexed on mixmate at 950 rpm for 2 min followed by applied 5 psi positive pressure for 10 min (Resprep VM-96 Vacuum Manifold for 96-Well Plates, Catalog #25858) (Restek; Bellefonte, PA) to collect the supernatant. Two microliters of the reconstituted sample was injected into LC-MS/MS for analysis. […]

[5] = test system: 22Rv1 tumor xenograft model of prostate cancer; experiment: 22Rv1 tumor xenograft study; assay type: in vivo, NSG mice
Method: Tumor xenograft study: All animal experiments were carried out according to approved Institutional Animal Care and Use Committee protocols at the University of Texas Southwestern Medical Center (Dallas, TX). Five-week-old female NSG mice (low circulating testosterone) were implanted with 3×10^6 22 Rv1 cells (ATCC, mycoplasma negative) in matrigel. When tumor volume reached approximately 125 mm^3 (day 11), mice were randomly divided into three groups of six mice. One group was treated with vehicle control PO (0.5% Methocel A4M+0.1% Tween 80)+vehicle IP (10% DMSO/10% cremophor EL/80% D5W). One group was treated with vehicle PO+IP 25 mg/kg A1-r in 10% DMSO/10% cremophor EL/80% D5W. One group was treated with vehicle PO+IP 50 mg/kg 4r in 10% DMSO/10% cremophor EL/80% D5W. Dosing was continued for a total of 26 days. Tumor volumes were measured twice a week with Vernier calipers, and tumor volume was calculated as (L×W^2)×3.14)/6 as previously reported. 2-3 hours after a final IP dose, animals were humanely euthanized, and tumors were collected, weighed, and frozen in liquid nitrogen after taking pictures.

[6] = In vivo pharmacokinetic study, oral gavage; design: species or system BALB/c mice
From the text: as §3
The MS/MS system was operated at unit resolution in the multiple reaction monitoring (MRM) in positive ESI mode, using precursor ion>product ion combinations of 427.20>105.10 for A1-r and 413.15>265.10 m/z for 4r. The mass spectrometer source settings were optimized to the following: nebulizer gas: 2.0 L/min; heating gas: 10 L/min; drying gas: 10 L/min; interface temperature: 300° C.; desolvation line temperature: 250° C.; heat block temperature: 400° C. Data acquisition and quantitation were performed using LabSolutions software Ver.5.99 (Shimadzu Scientific Inc, Columbia, MD).
Plasma sample preparation: Plasma samples were prepared by spiking 5 μL of the appropriate calibration (CC) and quality (QCs) control working stock into a 45 μL blank mouse plasma. The concentration of the CC ranged from 0.2-1000 ng/mL with the final concentrations of 0.2, 0.5, 1, 5, 10, 50, 100, 500, and 1000 ng/mL. A simple protein precipitation technique using Phree 96 well phospholipid elimination plate (Phenomenex Inc, Torrance CA.) was utilized to isolate analyte from the plasma matrix. The CC, QCs and study plasma samples were added to Phree 96 well plate and spiked with 10 μL of IS a working solution. The precipitation of the matrix proteins was carried out using 300 μL of ice-cold acetonitrile. The plate was again vortexed on mixmate at 950 rpm for 2 min followed by applied 5 psi positive pressure for 10 min (Resprep VM-96 Vacuum Manifold for 96-Well Plates, Catalog #25858) (Restek; Bellefonte, PA) to collect the supernatant. Two microliters of the reconstituted sample was injected into LC-MS/MS for analysis.
In vivo pharmacokinetic studies: Animal studies were approved by the University of Nebraska Medical Center (UNMC) Institutional Animal Care and Use Committee (IACUC protocol number 17-046-06-FC). BALB/c mice were purchased from Charles River Labs. Pharmacokinetic (PK) studies of A1-r and 4r were conducted in BALB/c mice. Animals were housed in the University of Nebraska Medical Center animal facility, for at least 7 days prior to the experiments, in order to acclimatize the animals to the laboratory conditions, at a temperature of 23-24° C., relative humidity of 40-70% and 12/12 h light/dark cycles with free access to food and water. The dosing solution was made of DMSO-Polyethylene glycol 400 (PEG400)-Propylene glycol (PG)-EtOH-Cremophore-PBS (2/20/10/10/5/53% v/v). Compound A1-r or 4r (10 mg/kg) was administered separately by oral gavage. After dosing, approximately 50 μL of blood was collected from the maxillary vein at 5, 15, 30 minutes and 1, 2, 7, and 24 hr (5 mice/group/per time point). A total of three blood samples were collected, with the third blood sample a terminal collection. Plasma was separated by centrifugation at 4,000×g at 4° C. for 10 minutes. The collected plasma samples were stored at −80° C. until analysis. […]

[7] = In vitro metabolic stability in mouse liver microsomes; assay type: in vitro ADME; settings: 1 μg/mL
Method: as §2

[8] = after oral administration (10 mg/kg) of 4r, Balb/c mice, plasma, mean ± SD, n = 5

For `COC(=O)/C=C/c1cc(C(=O)NCc2ccc(C)cc2)cc(-c2ccc3ncnn3c2)c1` [Compound 4r, Methyl (E)-3-(3-([1,2,4]triazolo[1,5-a]pyridin-6-yl)-5-((4-methylbenzyl)carbamoyl)phenyl)acrylate], the “stability in simulated intestinal fluid (SIF)” value [1] was “stable”, the “degraded in HLM” value [2] was “approximately 25%” and the “stability in simulated gastric fluid (SGF)” value [3] was “stable”. For the same compound, the “time until reduced to below detectable limits in mouse plasma” value ([4]; exposure to mouse plasma) was at most 30 min, the “stability in mouse plasma” value ([4]; mouse plasma, 37° C.) was “unstable” and the “reduction of tumor volume” value ([5]; 25 mg/Kg IP once a day for 26 days, 22Rv1 tumors in NSG mice) was “approximately 30%”. The “reduction of tumor burden” value ([5]; 50 mg/Kg IP once a day for 26 days, 22Rv1 tumors in NSG mice) was “approximately 45%”, the mouse body weight ([5]; 25 and 50 mg/Kg IP once a day for 26 days, NSG 22Rv1 tumor-bearing mice) was “no observed loss of mouse body weight” and the AUC0-t [6, 8] was 36.416 ng·h/mL. For the same compound, the Cmax [6, 8] was 92.796 ng/mL, the Tmax [6, 8] was 19 min and the “detection in systemic circulation 1 hour post administration” value ([6]; oral 10 mg/Kg 4r, 1 hour post administration) was “undetectable”. For the same compound, the “degraded in MLM” value [7] was “approximately 25%”.
